According to article PMC5577601, “The Neuroprotective Marine Compound Psammaplysene A Binds the RNA-Binding Protein HNRNPK” (Marine Drugs, 2017):

Target: T1, HNRNPK (Homo sapiens, UniProt P61978)
T1 construct: GST-HNRNPK
Assay: surface plasmon resonance (Biacore […]), RNA-saturated GST-HNRNPK vs GST; a second estimate vs GST-HNRNPI gave Kd […]
Type: binding

- Kd: 77.3 µM
SMILES: CN(C)CCCOc1c(Br)cc(/C=C/C(=O)NCCCOc2c(Br)cc(CCN(C)C)cc2Br)cc1Br [PA, Psammaplysene A]
